Consider 26 compounds from patent publication US12275733B2, “Substituted pyrido[3,4-b]indoles for the treatment of cartilage disorders” (Sanofi, priority 2016, dated 2025).

In this test the test system is ATDC5 cells. The experiment in a line: Chondrogenesis activity assay in ATDC5 cells (collagen type II induction, immunofluorescence). The class given is cell-based, mouse. Conditions: Mus musculus; for EC50: collagen type II induction in ATDC5 cells, concentration reaching 50% of maximum induction; for Emax: maximum percent induction of collagen type II relative to internal reference compound at 10 μM, ATDC5 cells. The gist of the method:
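Mouse ATDC5 cells in insulin (10 μg/ml)-containing DMEM/F12 differentiation medium with 5% FCS were exposed to compound, typically 40 nM–10 μM at 0.1% DMSO, for 4 days at 37 °C. Intracellular collagen type II was quantified by Alexa Fluor 488 immunostaining with high-content imaging, relative to DMSO and a 10 μM reference compound.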

Where only a bound is given, the exact number is not on record here.

As to `CCn1c2c(-c3ccc(OC)c(N)n3)cc(Cl)cc2c2ccnc(C)c21` [Example 17, 6-(6-Chloro-9-ethyl-1-methyl-9H-pyrido[3,4-b]indol-8-yl)-3-methoxy-pyridin-2-ylamine], it took 3600 nM to reach a half-maximal effect (EC50) and the Emax (usually the size of the effect at its maximum, as opposed to the concentration needed) was greater than 80%.
For `CCn1c2cnccc2c2cc(Cl)cc(-c3ccc(Cl)nc3)c21` [Example 54, 6-Chloro-8-(6-chloro-pyridin-3-yl)-9-ethyl-9H-pyrido[3,4-b]indole], the EC50 (usually the concentration giving half of the maximal effect) was found to be 1100 nM and the Emax was 20 to 50%.
The matching figures for `FC(F)(F)Cn1c2cnccc2c2cc(Cl)cc(-c3cnn(Cc4cccs4)c3)c21` [Example 166, 6-Chloro-8-(1-thiophen-2-ylmethyl-1H-pyrazol-4-yl)-9-(2,2,2-trifluoro-ethyl)-9H-pyrido[3,4-b]indole]: 840 nM and greater than 80%.
The compound `CCCn1cc(-c2cc(Cl)cc3c4ccncc4n(CC(F)(F)F)c23)cn1` [Example 161, 6-Chloro-8-(1-propyl-1H-pyrazol-4-yl)-9-(2,2,2-trifluoro-ethyl)-9H-pyrido[3,4-b]indole] registered an EC50 of 2000 nM and a maximum response (Emax) greater than 80%.
`CCn1c2c(-c3cccc(N4CCOCC4)c3)cc(Cl)cc2c2ccnc(C)c21` [Example 253, 6-Chloro-9-ethyl-1-methyl-8-(3-morpholin-4-yl-phenyl)-9H-pyrido[3,4-b]indole] gave an EC50 greater than 10000 nM and an Emax of 20 to 50%.
The matching figures for `Cc1nccc2c1[nH]c1c(-c3ccc(OCCn4cccn4)cc3)cc(Br)cc12` [Example 259, 6-Bromo-1-methyl-8-[4-(2-pyrazol-1-yl-ethoxy)-phenyl]-9H-pyrido[3,4-b]indole]: 430 nM and greater than 80%.
For `COc1ccc(-c2cc(Br)cc3c2[nH]c2c(C)nccc23)cc1` [Example 188, 6-Bromo-8-(4-methoxy-phenyl)-1-methyl-9H-pyrido[3,4-b]indole] the same measures were 640 nM and greater than 80%.
For `Cc1nccc2c1[nH]c1c(-c3ccc(OCC4CC4)cc3)cc(Cl)cc12` [Example 181, 6-Chloro-8-(4-cyclopropylmethoxy-phenyl)-1-methyl-9H-pyrido[3,4-b]indole] the same measures were 2100 nM and greater than 80%.
In turn, `COc1cc(-c2cc(Cl)cc3c2[nH]c2c(C)nccc23)ccc1OCc1ccccc1` [Example 222, 8-(4-Benzyloxy-3-methoxy-phenyl)-6-chloro-1-methyl-9H-pyrido[3,4-b]indole] had an EC50 greater than 10000 nM and an Emax of less than 20%.
For `Cc1nccc2c1[nH]c1c(-c3cccnc3)cc(Cl)cc12` [Example 65, 6-Chloro-1-methyl-8-pyridin-3-yl-9H-pyrido[3,4-b]indole] the same measures were 2300 nM and 20 to 50%.
The matching figures for `COc1ccc(-c2cc(Cl)cc3c2[nH]c2cnccc23)cn1` [Example 72, 6-Chloro-8-(6-methoxy-pyridin-3-yl)-9H-pyrido[3,4-b]indole]: 5800 nM and 20 to 50%.
In turn, `CCn1c2c(-c3cnn(Cc4ccc5ccccc5n4)c3)cc(Br)cc2c2ccnc(C)c21` [Example 38, 6-Bromo-9-ethyl-1-methyl-8-(1-quinolin-2-ylmethyl-1H-pyrazol-4-yl)-9H-pyrido[3,4-b]indole] showed an EC50 of 2600 nM and an Emax of 50 to 80%.
Compound `COCCn1c2cnccc2c2cc(Cl)cc(-c3ccc(Cl)nc3Cl)c21` [Example 111, 6-Chloro-8-(2,6-dichloro-pyridin-3-yl)-9-(2-methoxy-ethyl)-9H-pyrido[3,4-b]indole] came in with an EC50 of 1800 nM and an Emax of 50 to 80%.
The matching figures for `Cc1nccc2c1[nH]c1c(-c3ccc(Oc4ccccc4)cc3)cc(Cl)cc12` [Example 205, 6-Chloro-1-methyl-8-(4-phenoxy-phenyl)-9H-pyrido[3,4-b]indole]: 3300 nM and greater than 80%.
Turning to `CN(C)c1ccc(-c2cc(Cl)cc3c4ccncc4n(CC4CC4)c23)c(Cl)n1` [Example 294, [6-Chloro-5-(6-chloro-9-cyclopropylmethyl-9H-pyrido[3,4-b]indol-8-yl)-pyridin-2-yl]-dimethyl-amine], the EC50 came to 1200 nM and the Emax is greater than 80%.
For `CCn1c2c(-c3ccc(OCCN4CCOCC4)cc3)cc(Cl)cc2c2ccnc(C)c21` [Example 28, 6-Chloro-9-ethyl-1-methyl-8-[4-(2-morpholin-4-yl-ethoxy)-phenyl]-9H-pyrido[3,4-b]indole] the same measures were 190 nM and greater than 80%.
The matching figures for `Cc1nccc2c1[nH]c1c(-c3ccc4c(c3)CCO4)cc(Cl)cc12` [Example 179, 6-Chloro-8-(2,3-dihydro-benzofuran-5-yl)-1-methyl-9H-pyrido[3,4-b]indole]: greater than 10000 nM and greater than 80%.
For `Cc1nccc2c1[nH]c1c(-c3cccc(OCc4ncccn4)c3)cc(Cl)cc12` [Example 267, 6-Chloro-1-methyl-8-[3-(pyrimidin-2-ylmethoxy)-phenyl]-9H-pyrido[3,4-b]indole] the same measures were greater than 3300 nM and 50 to 80%.
On to `Cc1nccc2c1[nH]c1c(-c3cccc(CCO)c3)cc(Cl)cc12` [Example 248, 2-[3-(6-Chloro-1-methyl-9H-pyrido[3,4-b]indol-8-yl)-phenyl]-ethanol], for which the EC50 was greater than 3300 nM and the Emax was 20 to 50%.
For `CCn1c2c(-c3cnn(Cc4ccccc4)c3)cc(Cl)cc2c2ccnc(C)c21` [Example 207, 8-(1-Benzyl-1H-pyrazol-4-yl)-6-chloro-9-ethyl-1-methyl-9H-pyrido[3,4-b]indole] the same measures were 1600 nM and greater than 80%.
For `Cn1cc(-c2cc(Cl)cc3c4ccncc4n(CC(F)(F)F)c23)cn1` [Example 135, 6-Chloro-8-(1-methyl-1H-pyrazol-4-yl)-9-(2,2,2-trifluoro-ethyl)-9H-pyrido[3,4-b]indole] the same measures were 330 nM and 50 to 80%.
For `CCn1c2c(-c3cccnc3Cl)cc(Cl)cc2c2ccnc(C)c21` [Example 58, 6-Chloro-8-(2-chloro-pyridin-3-yl)-9-ethyl-1-methyl-9H-pyrido[3,4-b]indole] the same measures were 1500 nM and 20 to 50%.
In turn, `Cc1nccc2c1[nH]c1c(-c3ccc(OCC4COc5ccccc5O4)cc3)cc(Cl)cc12` (stereo not shown) [Example 278, 6-Chloro-8-[4-(2,3-dihydro-benzo[1,4]dioxin-2-ylmethoxy)-phenyl]-1-methyl-9H-pyrido[3,4-b]indole] returned an EC50 greater than 3300 nM and an Emax of 20 to 50%.
`CCn1c2c(-c3ccc(Oc4ccccc4)cc3)cc(Cl)cc2c2ccnc(C)c21` [Example 246, 6-Chloro-9-ethyl-1-methyl-8-(4-phenoxy-phenyl)-9H-pyrido[3,4-b]indole] registered an EC50 of 2900 nM and an Emax of 50 to 80%.
For `COc1ccc(-c2cc(Cl)cc3c2[nH]c2c(C)nccc23)c(OC)c1` [Example 193, 6-Chloro-8-(2,4-dimethoxy-phenyl)-1-methyl-9H-pyrido[3,4-b]indole] the same measures were greater than 10000 nM and 20 to 50%.
The matching figures for `Nc1ccc(-c2cc(Cl)cc3c4ccncc4n(CC4CC4)c23)c(Cl)n1` [Example 53, 6-Chloro-5-(6-chloro-9-cyclopropylmethyl-9H-pyrido[3,4-b]indol-8-yl)-pyridin-2-ylamine]: 2100 nM and 50 to 80%.
